# Reference: patent US20040009952A1, “TGF-beta gene overexpression preventing substances for the treatment of disorders connected with pathological overexpression of TGF-beta” (priority 1998, published 2004)
# Tested on: TGF-β1 mRNA
# Assay: Glucose- or PMA-induced TGF-β1 mRNA overexpression in porcine mesangial cells (RT-PCR, capillary electrophoresis)
# Assay type: cell-based
# Details: PMA; 10 μg/ml GAG; PMA alone 312; mean of 2 determinations
# Source text: To assess the inhibitory activity of the GAG action on TGF-β1 overexpression an in vitro assay was established. In this assay structurally distinct GAGs were investigated for their activity to inhibit stimulated TGF-β1 mRNA overexpression in cultured target cell. For the development of glomerulosclerosis (e.g. diabetes) mesangial cells are one major pathological target. Mesangial cells were isolated, characterized and grown as decribed by Kolm et al. Am. J. Physiol. 270: F812-F821, 1996. Cells were stimulated with PMA in the presence and absence of a variety of 10 μg/ml of GAGs and related compounds. Cellular mRNA TGF-β1I levels were determined as decribed in Example II.
# The separation and the precise quantification of the PCR products was performed on a Biofocus 3000 capillary electrophoresis system equipped with a laser-induced fluorescence detector (Bio-Rad, Munich, Germany) using an argon-ion laser. Excitation power was approximately 3.5 mW at =488 nm, and fluorescence emission was detected after passing through a 520 nm band pass filter. […] For on-column DNA fluorescence labeling, 1 μl Syber Green I (Molecular probes, Eugene, Or, USA) was addes per ml. […] The migration time for the PCR products was 5.2 min for TGF-β1 (161 bp) and 6.5 min for GAPDH (983 bp) All peak areas were calculated automatically using Biofocus Integration Software. […]
substance,measurement,value
chitosan-6-sulfate,TGF-β1 mRNA,116 % of control
